The test system of data set [1] is human tooth germ stem cells.
Protocol: The intermediate concentrations to be applied on the cells were prepared in the cell culture medium and were applied on the human tooth germ stem cells.
Data set [2] has as its system human tooth germ stem cells. Particulars: 20 μg/ml NaB + 5% Me2SO, thawed after long term freezing.
Data set [3] relates to human tooth germ stem cells. As to conditions: FIG. 2.
Protocol: During the freezing process, different from the standard protocol, 20 μg/ml NaB was added to the cell cryopreservation medium. The control group was incubated by a standard cryopreservation medium. During freezing of the cells, different amounts of Me2SO (10%, 7%, 5% and 3% Me2SO) were added to the medium which contained 20% FBS (Fetal Bovine Serum) and 1% PSA (penicillin streptomycin amphotericin) in addition to 20 μg/ml NaB. Except for the group which was frozen for an extended period (6 months), the other cells were subjected to 4 repeating freeze-thaw processes. During each freezing process, one million cells were placed into one freezing tube and were frozen to −80° C. by using a freezing tank. The freezing tubes were transferred to −196° C. liquid nitrogen vapor one day later. After each freezing process, the cells were rapidly molten in a 37° C. water bath and viability analyses were performed with trypan blue.

Consider sodium pentaborate pentahydrate [NaB], for which, in data set [1], the “concentration at which toxic effect was observed” value was not below 200 µg/mL. For the same substance, in data set [2], the “differentiation of the cells into chondrogenic lineage” value is “increase”, the “differentiation of the cells into odontogenic lineage” value was “increase” and the “stem cell differentiation into adipose tissue” value is on record as “slight decrease”. In addition, the “differentiation potentials of the cells (staining and immunocytochemistry analyses)” value in data set [2] (FIG. 3-4) was “no significant change”. Also, in data set [3] (20 μg/ml NaB in the presence of 5% Me2SO, repeatedly frozen cells and cells stored long term (6 months)), the “toxic effect in cell viability analysis of frozen cells” value is given as “decreased toxic effect”. The “cell viability over repeated freeze-thaw processes” value in data set [3] (20 μg/ml NaB, 5% Me2SO in cryopreservation medium) was “started to increase during and after the second freeze-thaw process”.

The values are drawn from patent publication US9943076B2, “Boron added cell cryopreservation medium” (YEDITEPE ÜNIVERSITESI, priority 2013, dated 2018).
